Data reported in EP4620955A1, “MC4R ANTAGONIST COMPOUND, PHARMACEUTICAL COMPOSITION AND PHARMACEUTICAL USE THEREOF” (Changchun Genescience Pharmaceutical Co., Ltd., priority 2022, dated 2024).

Assays:
MC4R = target: T1, MC4R (Homo sapiens, UniProt P32245); experiment: Assay of MC4R antagonist activity in cells in vitro (cAMP assay, Melanotan I stimulation); type: cell-based; conditions: flipin-293-MC4 cell line, Melanotan I as agonist
T1 construct: expressed in transfected cells; host or cells: flipin-293-MC4 (Flp-In 293 host, hygromycin selection)
T1 sequence (P32245 whole entry): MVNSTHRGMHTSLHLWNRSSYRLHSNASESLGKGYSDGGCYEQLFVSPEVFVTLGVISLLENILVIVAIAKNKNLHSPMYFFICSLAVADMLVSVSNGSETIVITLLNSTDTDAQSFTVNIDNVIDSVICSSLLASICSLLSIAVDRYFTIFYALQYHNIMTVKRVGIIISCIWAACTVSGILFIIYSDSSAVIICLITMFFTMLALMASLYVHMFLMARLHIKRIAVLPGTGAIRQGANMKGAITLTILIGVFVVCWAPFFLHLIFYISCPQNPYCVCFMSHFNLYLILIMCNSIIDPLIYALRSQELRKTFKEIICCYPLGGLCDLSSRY
Method: Test Example 1: Assay of MC4R antagonist activity in cells in vitro
a. Experimental consumables:
b. Experimental steps • ✔ Cell line: flipin-293-MC4 • ✔ Cell culture medium: DMEM, 10% fetal bovine serum, 1 × PS, 200 µg/mL hygromycin • ✔ Experimental buffer: HBSS, 20 mM HEPES, 0.1% BSA, 500 µM IBMX • ✔ Positive compound: ML00253764 c. Antagonist detection • 1. Digested cells were suspended in the experimental buffer, and then inoculated into the 384-well cell culture plate. • 2. The to-be-detected compound was added to the cell plate, and incubated at 37°C for 10 min. • 3. Melanotan I was added to the cell plate, and incubated at 37°C for 30 min. • 4. Two detection reagents EU cAMP tracer and ulight anti camp were thawed and diluted with a lysis solution in the kit. • 5. The diluted detection reagents were added to the cell plate and incubated at room temperature for 1 h. • 6. Reading was carried out by Envision. (Excitation light: 340 nm, emission light: 615 nm and 665 nm) d. Data analysis • 1. %Inhibition calculation: %Inhibition = (Signalcmpd−SignalAve_VC)/(SignalAve_PC−SignalAve_VC) × 100. [formula] • Signalcmpd: compound signal value; • SignalAve_VC: negative control signal value; • SignalAve_PC: positive control signal value; • %inhibition: inhibition percentage. • 2. Calculation of IC50 of the compound using the nonlinear fitting equation in GraphPad: Y = Bottom + (Top−Bottom)/(1+10^(∧)((LogIC50−X)×HillSlope)) [formula] X: logarithmic value of the concentration of the compound; Y: inhibition percentage

[1] = Pharmacokinetic study on the tested compound in SD male rats; type: in vivo; conditions: IV 1 mpk/PO 2 mpk
Method: On the day of administration, the tested compound was prepared with 5% DMSO + 5% Solutol + 90% Saline as a solvent into a solution for administration for use.
The solution for administration was administered to an intravenous injection IV group at a dose of 1 mg/kg in a concentration of 0.2 mg/mL. The solution for administration was administered to an oral gavage PO group at a dose of 2 mg/kg in a concentration of 0.2 mg/mL. The animals in the PO group were required to fast overnight in advance, drink water freely, and be fed 4 hours after administration. The IV group was not required to fast.
The animals were weighed before administration. On the day of administration, the solution was IV/PO-administered once in an administration amount calculated based on the weight. In the IV group, blood was collected from veins at 0.083 h, 0.25 h, 0.5 h, 1.0 h, 2.0 h, 4.0 h, 8.0 h, and 24 h after administration. In the PO group, blood was collected from veins at 0.25 h, 0.5 h, 1.0 h, 2.0 h, 4.0 h, 6.0 h, 8.0 h, and 24 h after administration. The amount of blood collected was about 0.20 mL. K2-EDTA was used in blood collection tubes as an anticoagulant. The collected blood sample was centrifuged (centrifugation conditions: 6800 g, 6 min, 2°C to 8°C) within 1 h to obtain plasma. The to-be-tested sample was stored in a refrigerator at -80°C before analysis.
The concentration of the tested compound in the plasma of the SD male rats was detected by the validated LC-MS/MS method.

[2] = Sprague-Dawley (SD), rat, plasma

SMILES	IC50 (MC4R)	further results
COc1cc([C@@H](C)C(=O)N2CCC(Nc3ccc(-c4ncccn4)c(C)n3)C2)c(F)cn1 (stereo partly drawn) [Compound 001, (2R)-2-(5-fluoro-2-methoxypyridine-4-yl)-1-(3-((6-methyl-5-(pyrimidine-2-yl)pyridine-2-yl)amino)pyrrolidine-1-yl)propyl-1-one]	16.4 nM	–
COc1cc([C@@H](C)C(=O)N2C[C@@H](C)[C@H](Nc3ccc(-c4ncccn4)c(C)n3)C2)c(F)cn1 [Compound 051-2, (R)-2-(5-fluoro-2-methoxypyridine-4-yl)-1-((3R,4S)-3-methyl-4-((6-methyl-5-(pyrimidine-2-yl)pyridine-2-yl)amino)pyrrolidine-1-yl)propan-1-one]	10.6 nM	–
COc1cc([C@@H](C)C(=O)N2CC[C@H](Nc3ccc(-c4ncc(C#N)cn4)c(C)n3)C2)c(F)cn1 [Compound 110, 2-(6-(((S)-1-((R)-2-(5-fluoro-2-methoxypyridine-4-yl)propionyl)pyrrolidine-3-yl)amino)-2-methylpyridine-3-yl)pyrimidine-5-nitrile]	26.2 nM	–
COc1cc([C@@H](C)C(=O)N2CC[C@H](Nc3ccc(-c4nccc(C#N)n4)c(C)n3)C2)c(Cl)cn1 [Compound 113, 2-(6-(((S)-1-((R)-2-(5-chloro-2-methoxypyridine-4-yl)propionyl)pyrrolidine-3-yl)amino)-2-methylpyridine-3-yl)pyrimidine-4-nitrile]	0.9 nM	–
COc1ccc2nc(N[C@@H]3CN(C(=O)[C@H](C)c4cc(OC)ncc4F)CC34CC4)nc(C)c2c1 [Compound 115, (R)-2-(5-fluoro-2-methoxypyridine-4-yl)-1-((S)-7-((6-methoxy-4-methylquinazoline-2-yl)amino)-5-azaspiro[2.4]heptane-5-yl)propan-1-one]	2.78 nM	–
COc1cc([C@@H](C)C(=O)N2C[C@@H](Nc3ccc4cc(OC)c(F)cc4n3)C3(CC3)C2)c(F)cn1 [Compound 117, (R)-2-(5-fluoro-2-methoxypyridine-4-yl)-1-((S)-7-((7-fluoro-6-methoxyquinoline-2-yl)amino)-5-azaspiro[2.4]heptane-5-yl)propan-1-one]	1.57 nM	–
COc1ccc2nc(N[C@@H]3CN(C(=O)[C@H](C)c4cc(OC)ncc4Cl)CC34CC4)nc(C)c2c1 [Compound 118]	3.75 nM	–
COc1cc([C@@H](C)C(=O)N2C[C@@H](Nc3ccc(-c4nc(C(F)F)n(C)n4)c(C)n3)C3(CC3)C2)c(F)cn1 [Compound 119, (R)-1-((S)-7-((5-(5-(difluoromethyl)-1-methyl-1H-1,2,4-triazole-3-yl)-6-methylpyridine-2-yl)amino)-5-azaspiro[2.4]heptane-5-yl)-2-(5-fluoro-2-methoxypyridine-4-yl)propan-1-one]	1.71 nM	–
COc1cc([C@@H](C)C(=O)N2C[C@@H](Nc3ccc(-c4nc(C)n(C)n4)c(C)n3)C3(CC3)C2)c(F)cn1 [Compound 132, (2R)-1-[(7S)-7-{[5-(1,5-dimethyl-1H-1,2,4-triazole-3-yl)-6-methylpyridine-2-yl]amino}-5-azaspiro[2.4]heptane-5-yl]-2-(5-fluoro-2-methoxypyridine-4-yl)propan-1-one]	1.06 nM	–
COc1cc([C@@H](C)C(=O)N2C[C@@H](Nc3ccc(-c4ncn(C)n4)c(C)n3)C3(CC3)C2)c(F)cn1 [Compound 136, (2R)-2-(5-fluoro-2-methoxypyridine-4-yl)-1-[(7S)-7-{[6-methyl-5-(1-methyl-1H-1,2,4-triazole-3-yl)pyridine-2-yl]amino}-5-azaspiro[2.4]heptane-5-yl]propan-1-one]	1.28 nM	–
COc1cc([C@@H](C)C(=O)N2CC[C@H](Nc3ccc(-c4cn(C)c(OC(F)F)n4)c(C)n3)C2)c(F)cn1 [Compound 197, (R)-1-((S)-3-((5-(2-(difluoromethoxy)-1-methyl-1H-imidazol-4-yl)-6-methylpyridine-2-yl)amino)pyrrolidine-1-yl)-2-(5-fluoro-2-methoxypyridine-4-yl)propan-1-one]	–	F [1]: 11.1%; AUC [1, 2]: 43 ng·h/mL; Cmax [1, 2]: 35 ng/mL; clearance [1, 2]: 86.9 mL/min/kg; half-life [1, 2]: 1.2 h
